Activity calls are given as the source filed them. The calls are words filed in the database; no cut-off is given here.
What was measured:
[1] = test system: PC-12; assay: Cytoprotection activity against H2O2-induced cytotoxicity in rat PC12 cells assessed as cell viability at 20 uM pre-incubated for 24 hrs before H2O2 exposure for 12 hrs by MTT assay; assay type: functional, cell-based
[2] = Cytotoxicity against rat PC12 cells assessed as reduction in cell viability at 20 uM incubated for 24 hrs by MTT assay; assay type: cell-based; details: pc-12, 24 h
[3] = test system: PC-12; assay: Cytoprotection activity against 6-OHDA-induced cytotoxicity in rat PC12 cells assessed as cell viability at 20 uM pre-incubated for 24 hrs before 6-OHDA exposure for 12 hrs by MTT assay; assay type: functional, cell-based
[4] = Cytotoxicity against rat PC12 cells assessed as reduction in cell viability at 100 uM incubated for 24 hrs by MTT assay; assay type: cell-based; details: pc-12, 24 h
[5] = Cytotoxicity against human L02 cells assessed as reduction in cell viability at 100 uM incubated for 24 hrs by MTT assay; assay type: cell-based; details: l02, 24 h
[6] = Cytotoxicity against human L02 cells assessed as reduction in cell viability at 20 uM to 100 uM incubated for 24 hrs by MTT assay; assay type: cell-based; details: l02, 24 h
[7] = Antioxidant activity assessed as DPPH radical scavenging activity at 20 uM incubated for 30 mins by spectrophotometry; assay type: physicochemical; details: 0.5 h
[8] = Cytotoxicity against rat PC12 cells assessed as reduction in cell viability at 20 uM to 100 uM incubated for 24 hrs by MTT assay; assay type: cell-based; details: pc-12, 24 h
[9] = Antioxidant activity assessed as ABTS radical scavenging activity at 20 uM incubated for 30 mins by spectrophotometry; assay type: physicochemical; details: 0.5 h

**Q.** Which results are given for `O=C(/C=C/c1ccc(C(F)(F)F)cc1)N1CCCC1=O`?
**A.** Activity [1]: Active; Activity [2]: Non-toxic; Activity [3]: Active; Activity [4]: Toxic; Activity [5]: Toxic

**Q.** For `O=C(/C=C/c1ccc([N+](=O)[O-])cc1)N1CCCCCC1=O`, which Activity [1] is on record?
**A.** The Activity was “Active”.

**Q.** And the Activity [2]?
**A.** Its Activity is “Non-toxic”.

**Q.** And the Activity [3]?
**A.** The Activity was “Active”.

**Q.** And the Activity [4]?
**A.** Its Activity is “Toxic”.

**Q.** What about the Activity [5] of the same molecule?
**A.** Its Activity is “Toxic”.

**Q.** For `O=C(/C=C/c1ccc(Br)cc1)N1CCCC1=O`, which Activity [1] is on record?
**A.** Its Activity is “Active”.

**Q.** What about the Activity [2] of the same molecule?
**A.** The Activity was “Non-toxic”.

**Q.** And the Activity [3]?
**A.** The Activity was “Active”.

**Q.** And the Activity [4]?
**A.** Its Activity is “Toxic”.

**Q.** What about the Activity [5] of the same molecule?
**A.** Its Activity is “Toxic”.

**Q.** With `O=C(/C=C/c1ccc([N+](=O)[O-])cc1)N1CCCCC1=O` as the molecule, how does the Activity [1] read?
**A.** Its Activity is “Active”.

**Q.** What about the Activity [2] of the same molecule?
**A.** The Activity was “Non-toxic”.

**Q.** And the Activity [3]?
**A.** The Activity was “Active”.

**Q.** What about the Activity [4] of the same molecule?
**A.** The Activity was “Toxic”.

**Q.** What about the Activity [5] of the same molecule?
**A.** Its Activity is “Toxic”.

**Q.** Which results are given for `O=C(/C=C/c1ccc(Br)cc1)N1CCCCC1=O`?
**A.** Activity [1]: Active; Activity [2]: Non-toxic; Activity [3]: Active; Activity [4]: Toxic; Activity [5]: Toxic

**Q.** For `O=C(/C=C/c1ccc(O)cc1)N1CCCC1=O`, which Activity [1] is on record?
**A.** Its Activity is “Active”.

**Q.** What about the Activity [2] of the same molecule?
**A.** The Activity was “Non-toxic”.

**Q.** What about the Activity [3] of the same molecule?
**A.** Its Activity is “Active”.

**Q.** What about the Activity [6] of the same molecule?
**A.** The Activity was “Non-toxic”.

**Q.** And the Activity [7]?
**A.** Its Activity is “Active”.

**Q.** What about the Activity [8] of the same molecule?
**A.** Its Activity is “Non-toxic”.

**Q.** And the Activity [9]?
**A.** The Activity was “Active”.

**Q.** Which results are given for `COc1cc(/C=C/C(=O)N2CCC=CC2=O)cc(OC)c1OC` [PIPLARTINE]?
**A.** Activity [2]: Toxic; Activity [6]: Toxic; Activity [8]: Toxic

**Q.** With `O=C(/C=C/c1ccccc1)N1CCCC1=O` as the molecule, how does the Activity [1] read?
**A.** The Activity was “Active”.

**Q.** And the Activity [2]?
**A.** The Activity was “Non-toxic”.

**Q.** And the Activity [3]?
**A.** Its Activity is “Active”.

**Q.** And the Activity [4]?
**A.** Its Activity is “Toxic”.

**Q.** And the Activity [5]?
**A.** Its Activity is “Toxic”.

**Q.** What does the source list for `COc1cc(/C=C/C(=O)N2CCCC2=O)cc(OC)c1OC`?
**A.** Activity [1]: Active; Activity [2]: Non-toxic; Activity [3]: Active; Activity [6]: Non-toxic; Activity [8]: Non-toxic

**Q.** For `COc1cc(CCC(=O)N2CCCCC2=O)cc(OC)c1OC` [TETRAHYDROPIPLARTINE], which Activity [1] is on record?
**A.** The Activity was “inactive”.

**Q.** And the Activity [2]?
**A.** Its Activity is “Non-toxic”.

**Q.** And the Activity [3]?
**A.** Its Activity is “inactive”.

**Q.** And the Activity [6]?
**A.** The Activity was “Non-toxic”.

**Q.** And the Activity [8]?
**A.** Its Activity is “Non-toxic”.

**Q.** For `O=C(/C=C/c1ccccc1)N1CCCCC1=O`, which Activity [1] is on record?
**A.** Its Activity is “Active”.

**Q.** And the Activity [2]?
**A.** Its Activity is “Non-toxic”.

**Q.** What about the Activity [3] of the same molecule?
**A.** The Activity was “Active”.

**Q.** And the Activity [4]?
**A.** The Activity was “Toxic”.

**Q.** What about the Activity [5] of the same molecule?
**A.** Its Activity is “Toxic”.

**Q.** For `COc1ccc(/C=C/C(=O)N2CCCCC2=O)cc1`, which Activity [1] is on record?
**A.** Its Activity is “Active”.

**Q.** And the Activity [2]?
**A.** The Activity was “Non-toxic”.

**Q.** What about the Activity [3] of the same molecule?
**A.** Its Activity is “Active”.

**Q.** What about the Activity [6] of the same molecule?
**A.** The Activity was “Non-toxic”.

**Q.** And the Activity [8]?
**A.** The Activity was “Non-toxic”.

**Q.** What does the source list for `COc1cc(/C=C/C(=O)N2CCCCCC2=O)cc(OC)c1OC`?
**A.** Activity [1]: Active; Activity [2]: Non-toxic; Activity [3]: Active; Activity [6]: Non-toxic; Activity [8]: Non-toxic

**Q.** With `COc1ccc(/C=C/C(=O)N2CCCC2=O)cc1OC` as the molecule, how does the Activity [1] read?
**A.** The Activity was “Active”.

**Q.** What about the Activity [2] of the same molecule?
**A.** Its Activity is “Non-toxic”.

**Q.** What about the Activity [3] of the same molecule?
**A.** Its Activity is “Active”.

**Q.** What about the Activity [6] of the same molecule?
**A.** Its Activity is “Non-toxic”.

**Q.** And the Activity [8]?
**A.** Its Activity is “Non-toxic”.

**Q.** With `O=C(/C=C/c1ccc(C(F)(F)F)cc1)N1CCCCCC1=O` as the molecule, how does the Activity [1] read?
**A.** Its Activity is “Active”.

**Q.** What about the Activity [2] of the same molecule?
**A.** Its Activity is “Non-toxic”.

**Q.** What about the Activity [3] of the same molecule?
**A.** The Activity was “Active”.

**Q.** And the Activity [4]?
**A.** Its Activity is “Toxic”.

**Q.** And the Activity [5]?
**A.** Its Activity is “Toxic”.

**Q.** With `O=C(/C=C/c1ccc(C(F)(F)F)cc1)N1CCCCC1=O` as the molecule, how does the Activity [1] read?
**A.** The Activity was “Active”.

**Q.** What about the Activity [2] of the same molecule?
**A.** Its Activity is “Non-toxic”.

**Q.** And the Activity [3]?
**A.** Its Activity is “Active”.

**Q.** And the Activity [4]?
**A.** Its Activity is “Toxic”.

**Q.** What about the Activity [5] of the same molecule?
**A.** The Activity was “Toxic”.

**Q.** For `O=C(/C=C/c1ccccc1)N1CCCCCC1=O`, which Activity [1] is on record?
**A.** Its Activity is “Active”.

**Q.** And the Activity [2]?
**A.** Its Activity is “Non-toxic”.

**Q.** And the Activity [3]?
**A.** The Activity was “Active”.

**Q.** What about the Activity [4] of the same molecule?
**A.** The Activity was “Toxic”.

**Q.** And the Activity [5]?
**A.** Its Activity is “Toxic”.

— ChEMBL document CHEMBL3580644, “Synthesis of piperlongumine analogues and discovery of nuclear factor erythroid 2-related factor 2 (Nrf2) activators as potential neuroprotective agents” (J Med Chem, 2015)
